# In patent publication US20260017958A1, “METHOD FOR DETERMINING REGION OF CELL THAT HAS UNDERGONE PROGRAMMED CELL DEATH, DEVICE COMPRISING DETERMINATION UNIT, AND INFORMATION PROCESSING PROGRAM INCLUDING DETERMINATION STEP” (priority 2022, published 2026):
# Legend:
# [1] = tested on: HepG2 cell clusters; conditions: FIG. 47 and 48
# Protocol: A549 cells, a human lung cancer-derived cell line, were seeded on an EZSPHERE 6-well plate (manufactured by AGC Techno Glass Co., Ltd.) at a density of 1.50×10^5 cells per well, and the cells were cultured in MEM medium containing 10% fetal bovine serum and MEM Non-Essential Amino Acids Solution (100x) (manufactured by Gibco, Inc.) at a final concentration of 1× under the conditions of 5% CO2, 37° C., and 100% humidity for 3 days, to form cell clusters. A DMSO solution of staurosporine (manufactured by FUJIFILM Wako Pure Chemical Corporation) was added thereto so as to obtain a final concentration of 0, 10, 20, 50, 100, 200, 300, 500, 700, 1000, 2000, or 5000 nM, and the cells were further cultured for 1 day. […]
# Subsequently, the threshold value of the amount of spatial variation of the refractive index used in the threshold method was set to 2×10^−4. Subsequently, the refractive index distribution data was subjected to Gaussian noise removal processing using a Gaussian filter, fourth-order differentiation processing, and image convolution processing, and the amount of spatial variation of the refractive index for each voxel included in the refractive index distribution data was calculated. […]
# [2] = tested on: A549 cell clusters
# Protocol: A549 cells, a human lung cancer-derived cell line, were seeded on an EZSPHERE 6-well plate (manufactured by AGC Techno Glass Co., Ltd.) at a density of 1.50×10^5 cells per well, and the cells were cultured in MEM medium containing 10% fetal bovine serum and MEM Non-Essential Amino Acids Solution (100x) (manufactured by Gibco, Inc.) at a final concentration of 1× under the conditions of 5% CO2, 37° C., and 100% humidity for 3 days, to form cell clusters. A DMSO solution of staurosporine (manufactured by FUJIFILM Wako Pure Chemical Corporation) was added thereto so as to obtain a final concentration of 0, 10, 20, 50, 100, 200, 300, 500, 700, 1000, 2000, or 5000 nM, and the cells were further cultured for 1 day. Under the conditions in which the final concentration of STS was 0 nM, a solution of DMSO (manufactured by Sigma-Aldrich Corporation), which was used as a solvent for STS, at a final concentration of 0.5% was added.
# For the obtained cell clusters, the refractive index distribution data was acquired using an observation apparatus 1A and the ODT shown in the refractive index distribution measurement method C. An objective lens at a magnification of 60 times was used.
# Subsequently, the threshold value of the amount of spatial variation of the refractive index used in the threshold method was set to 2×10^−4. Subsequently, the refractive index distribution data was subjected to Gaussian noise removal processing using a Gaussian filter, fourth-order differentiation processing, and image convolution processing, and the amount of spatial variation of the refractive index for each voxel included in the refractive index distribution data was calculated. Lastly, the obtained amount of spatial variation of the refractive index was compared with the threshold value 2×10^−4, a region having an amount of spatial variation of the refractive index greater than the threshold value was determined to be a region of cells that had undergone programmed cell death (region of dead cells), and a region having an amount of spatial variation of the refractive index smaller than the threshold value was determined to be a non-divided region (region of live cells).
compound,measurement,setting,value
CN[C@@H]1C[C@H]2O[C@@](C)([C@@H]1OC)n1c3ccccc3c3c4c(c5c6ccccc6n2c5c31)C(=O)NC4 [staurosporine],external shape of the cell cluster,[1],conspicuous changes in the external shape did not occur
same,equivalent diameter of the cell cluster,"[2]; 0-5000 nM, FIG. 41",not dependent on the concentration of staurosporine
same,volume of the cell cluster,"[2]; 0-5000 nM, FIG. 42",not dependent on the concentration of staurosporine
same,proportion of regions determined to be non-divided regions (live cells),"[2]; 0-5000 nM, FIG. 46",decreased in a staurosporine concentration-dependent manner
same,nuclear fragmentation (morphological feature of apoptosis) in refractive index tomography data,"[2]; 1000 nM, FIG. 43","cells with nuclear fragmentation, which is a morphological feature of apoptosis, were observed on the surface and the inside of the cell cluster"
